Tested on: influenza virus strains resistant to remantadine
Assay type: in vivo
Conditions: chick embryos, 1 mg/embryo

Compound: CC1=C(C(=O)OC2CC3CCC2(C)C3(C)C)C2Nc3ccccc3N(C)C2O1 (stereo not shown) [compound 1a, isobornyl ester of 2,9-dimethyl-3a,4,9,9a-tetrahydrofuro [2,3-b] quinoxaline-3-carboxylic acid]
- sensitivity of strains resistant or only slightly sensitive to remantadine (in words): Some virus strains that are resistant or only slightly sensitive to remantadine were sensitive to the proposed compound 1a
